Results as given in patent publication US12514832B2, “Methods for using low-dose colchicine after myocardial infarction” (INSTITUT DE CARDIOLOGIE DE MONTREAL, priority 2019, dated 2026).
“And” between values parts separate entries of the source, which are not always exact repeats. Equal values may be shown once.

Tested on: rs149354567 (CDRT8/PMP22, chromosome 17); rs10811106 (SAXO1, chromosome 9)
Assay: COLCOT pharmacogenomic GWAS and Cox / recurrent-event analyses of the primary efficacy end point by genotype
Assay type: in vivo, human
Conditions: for Primary end point, HR (95% CI) for rs149354567 minor (GA) versus major (G) allele: Cox, controlling for age, sex, C1-C10; for Recurrent primary end point events, Hazard Ratio (95% CI), Andersen-Gill model / Recurrent primary end point events, Hazard Ratio (95% CI), WLW model K = 2, 1st Event / Recurrent primary end point events, Hazard Ratio (95% CI), WLW model K = 2, 2nd Event / Recurrent primary end point events, Hazard Ratio (95% CI), WLW model K = 2, Average / Recurrent primary end point events, Rate Ratio (95% CI), Negative binomial model: colchicine vs placebo
Excerpt: FIG. 3 is a Manhattan plot of a Genome-wide Association Study (GWAS) with common single-nucleotide polymorphisms (SNPs) with minor allele frequency (MAF)≥5% for the primary efficacy end point using a survival analysis (coxph) regression with all patients in colchicine treatment arm (compliant ITT pgx population) in the COLCOT cohort, controlling for age, sex, principal components (C1-C10) with a threshold of 5.000E-08 (4,462,492 variants and 702 samples).
FIG. 4 is a plot of SNPs located on chromosome 17 (from 14,623,118 to 15,623,118 bp) for the primary efficacy end point using a survival analysis (coxph) regression with all patients in colchicine treatment arm (compliant ITT pgx population) in the COLCOT cohort, controlling for age, sex, principal components (C1-C10) with a threshold of 5.000E-08 (4,462,492 variants and 702 samples).
(§1) FIG. 8 is a Manhattan plot of GWAS with common SNPs with MAF≥5% for the primary efficacy endpoint using a survival analysis (coxph) regression with male patients in colchicine treatment arm (compliant ITT pgx population) in the COLCOT cohort, controlling for age, sex specific principal components (SC1-SC10) with a threshold of 5.000E-08 (4,455,743 variants and 576 samples).
as §1, with “FIG. 9” for “FIG. 8”, “a” for “a Manhattan”, “of single-nucleotide polymorphisms (SNPs) located on chromosome 9 (from 18,537,533 to 19,537,533 bp)” for “of GWAS with common SNPs with MAF≥5%”, “for” for “for the”
A Genome-wide Association Study (GWAS) was performed for the COLCOT primary efficacy end points. The primary efficacy endpoints were, the earliest occurrence of: cardiovascular death, resuscitated cardiac arrest, acute myocardial infarction, stroke, or urgent hospitalization for angina requiring coronary revascularization.
A plot of SNPs located on chromosome 17 (from 14,623,118 to 15,623, 118 bp) for the primary efficacy end point using a survival analysis (coxph) regression with all patients in colchicine treatment arm (compliant ITT pgx population) in the COLCOT cohort is shown in FIG. 4. Within this region, SNP rs149354567 was identified for further analysis (Table 10). SNP rs149354567 is intergenic for the CDR8T (CMT1A duplicated region transcript 8) gene and the PMP22 (peripheral myelin protein 22) gene.
A Cox statistical analysis for the primary endpoint comparing the chromosome 17 SNP rs149354567 minor versus major alleles by treatment arms is shown in Table 11 below.
A Cox statistical analysis for the primary end point comparing colchicine versus placebo for SNP rs149354567 genotypes is shown in Table 12 below.
The above analysis is based on time to first event among the components of the primary end point. Three other analyses were also considered to account for multiple events within subjects. These analyses make use of all events, including the ones that occur after the first. The Wei, Lin, and Weissfeld (WLW) marginal model, the Andersen and Gill (AG) model, and the negative binomial model were used.
A further region of the genome with a genetic variant, rs10811106, that, in males, is associated with efficacy of colchicine in the prevention of cardiovascular events in participants recruited within 30 days of a myocardial infarction (acute coronary syndrome) was identified using similar statistical analyses (FIG. 8). SNP rs10811106 is intronic in the SAXO1 (stabilizer of axonemal microtubules 1) gene (FIG. 9). SNP rs10811106 was associated with the primary efficacy endpoint of COLCOT (composite of cardiovascular death, resuscitated cardiac arrest, myocardial infarction, stroke, or urgent hospitalization for angina requiring coronary revascularization) in the colchicine treatment arm (P=5.8×10^−8).

[1] = colchicine arm N=2, rs149354567 genotype GA/GA
[2] = colchicine arm N=102, rs149354567 genotype G/GA
[3] = colchicine arm N=585, rs149354567 genotype G/G
[4] = colchicine arm N=689, all rs149354567 genotypes
[5] = rs10811106 chr 9, EA T vs NEA C, N 564, 30 events

COc1cc2c(c(OC)c1OC)-c1ccc(OC)c(=O)cc1[C@@H](NC(C)=O)CC2 [Colchicine, colchicine]
fewer cardiovascular events with colchicine compared to placebo (carriers of genotype G-/G- at rs149354567): 40%
Recurrent primary end point events, Hazard Ratio (95% CI) for one unit increase of rs149354567 dosage, Andersen-Gill model (colchicine arm): 4.55 (2.45; 8.46)
Recurrent primary end point events, Hazard Ratio (95% CI) for one unit increase of rs149354567 dosage, WLW model K = 2, 1st Event (colchicine arm): 5.30 (2.90; 9.70)
Recurrent primary end point events, Hazard Ratio (95% CI) for one unit increase of rs149354567 dosage, WLW model K = 2, 2nd Event (colchicine arm): 3.96 (0.99; 15.80)
Recurrent primary end point events, Hazard Ratio (95% CI) for one unit increase of rs149354567 dosage, WLW model K = 2, Average (colchicine arm): 5.28 (2.88; 9.66)
Recurrent primary end point events, Rate Ratio (95% CI) for one unit increase of rs149354567 dosage, Negative binomial model (colchicine arm): 4.58 (2.40; 8.74)
Primary end point events rate per 100 subject-months (colchicine arm N=2, genotype GA/GA): 0 per 100 subject-months
Total number of primary end point events (colchicine arm N=2, genotype GA/GA, 24 follow-up months): 0
Primary end point, patients with events (at least one event) (colchicine arm N=2, rs149354567 GA/GA): 0
Number of subjects with 0 primary end point events [1]: 2
Number of subjects with 1 primary end point event [1]: 0
Number of subjects with 2 primary end point events [1]: 0
Number of subjects with 3 primary end point events [1]: 0
Number of subjects with 4 primary end point events [1]: 0
Primary end point events rate per 100 subject-months (colchicine arm N=102, genotype G/GA): 0.71 per 100 subject-months
Total number of primary end point events (colchicine arm N=102, genotype G/GA, 2678 follow-up months): 19
Primary end point, patients with events (at least one event) (colchicine arm N=102, rs149354567 G−/GA): 17
Number of subjects with 0 primary end point events [2]: 85
Number of subjects with 1 primary end point event [2]: 15
Number of subjects with 2 primary end point events [2]: 2
Number of subjects with 3 primary end point events [2]: 0
Number of subjects with 4 primary end point events [2]: 0
Primary end point, patients with events (colchicine arm N=104, rs149354567 G−/GA+GA/GA): 17
Primary end point events rate per 100 subject-months (colchicine arm N=585, genotype G/G): 0.16 per 100 subject-months
Total number of primary end point events (colchicine arm N=585, genotype G/G, 14370 follow-up months): 23
Primary end point, patients with events (at least one event) (colchicine arm N=585, rs149354567 G−/G−): 20
Number of subjects with 0 primary end point events [3]: 565
Number of subjects with 1 primary end point event [3]: 17
Number of subjects with 2 primary end point events [3]: 3
Number of subjects with 3 primary end point events [3]: 0
Number of subjects with 4 primary end point events [3]: 0
Number of subjects with 0 primary end point events [4]: 652
Number of subjects with 1 primary end point event [4]: 32
Number of subjects with 2 primary end point events [4]: 5
Number of subjects with 3 primary end point events [4]: 0
Number of subjects with 4 primary end point events [4]: 0
Primary end point events rate per 100 subject-months [4]: 0.25 per 100 subject-months
Total number of primary end point events (colchicine arm N=689, all rs149354567 genotypes, 17072 follow-up months): 42
Primary end point, patients with events (at least one event) (colchicine arm N=689, all rs149354567 genotypes, compliant ITT pgx population): 37
Primary end point, % of events (colchicine arm, all rs149354567 genotypes): 5.4%
Primary end point, hr per effect allele, rs75780450 (T vs C) (colchicine arm, males + females, compliant ITT pgx population): 4.611
Primary end point, hr per effect allele, rs1854156 (C vs G) (colchicine arm, males only): 5.104
Primary end point, hr per effect allele, rs10118790 (A vs G) (colchicine arm, males only): 5.05
Primary end point, hr per effect allele, rs10811106 (T vs C) (colchicine arm, males only): 5.503
Primary end point, hr per effect allele, rs10963895 (A vs G) (colchicine arm, males only): 4.191
Primary end point, hr per effect allele, rs28733572 (C vs G) (colchicine arm, males only): 5.043
Primary end point, % of events (colchicine arm, rs149354567 G−/GA): 16.7%
Primary end point, % of events (colchicine arm, rs149354567 G−/GA+GA/GA): 16.3%
Primary end point, % of events (colchicine arm, rs149354567 G−/G−): 3.4%
Primary end point, HR (95% CI) for rs149354567 minor (GA) versus major (G) allele (colchicine arm, compliant ITT pgx population): 5.30 (2.84-9.89)
Primary end point, HR (95% CI) for rs149354567 minor (GA) versus major (G) allele (colchicine arm, compliant ITT pgx population, listed as colchicine): 5.30 and 5.299
Recurrent primary end point events, Hazard Ratio (95% CI), Andersen-Gill model (all rs149354567 genotypes): 0.61 (0.39; 0.96)
Recurrent primary end point events, Hazard Ratio (95% CI), WLW model K = 2, 1st Event (all rs149354567 genotypes): 0.82 (0.53; 1.28)
Recurrent primary end point events, Hazard Ratio (95% CI), WLW model K = 2, 2nd Event (all rs149354567 genotypes): 0.28 (0.10; 0.73)
Recurrent primary end point events, Hazard Ratio (95% CI), WLW model K = 2, Average (all rs149354567 genotypes): 0.80 (0.52; 1.25)
Recurrent primary end point events, Rate Ratio (95% CI), Negative binomial model (all rs149354567 genotypes): 0.57 (0.34; 0.94)
Recurrent primary end point events, Hazard Ratio (95% CI), Andersen-Gill model (rs149354567 genotype G/G): 0.48 (0.27; 0.85)
Recurrent primary end point events, Hazard Ratio (95% CI), WLW model K = 2, 1st Event (rs149354567 genotype G/G): 0.60 (0.34; 1.04)
Recurrent primary end point events, Hazard Ratio (95% CI), WLW model K = 2, 2nd Event (rs149354567 genotype G/G): 0.25 (0.07; 0.85)
Recurrent primary end point events, Hazard Ratio (95% CI), WLW model K = 2, Average (rs149354567 genotype G/G): 0.59 (0.34; 1.03)
Recurrent primary end point events, Rate Ratio (95% CI), Negative binomial model (rs149354567 genotype G/G): 0.43 (0.23; 0.82)
Recurrent primary end point events, Hazard Ratio (95% CI), Andersen-Gill model (rs149354567 genotype G/G, listed as colchicine): 0.48
Recurrent primary end point events, Hazard Ratio (95% CI), Andersen-Gill model (rs149354567 genotype G/GA): 0.84 (0.34; 2.11)
Recurrent primary end point events, Hazard Ratio (95% CI), WLW model K = 2, 1st Event (rs149354567 genotype G/GA): 1.62 (0.69; 3.79)
Recurrent primary end point events, Hazard Ratio (95% CI), WLW model K = 2, 2nd Event (rs149354567 genotype G/GA): 0.17 (0.03; 1.02)
Recurrent primary end point events, Hazard Ratio (95% CI), WLW model K = 2, Average (rs149354567 genotype G/GA): 1.35 (0.58; 3.12)
Recurrent primary end point events, Rate Ratio (95% CI), Negative binomial model (rs149354567 genotype G/GA): 0.91 (0.39; 2.08)
fewer cardiovascular events with colchicine compared to placebo (males, genotype C/C at rs10811106): 54%
Primary end point in males only, HR (95% CI) colchicine versus placebo (rs10811106 CT (16%), N total 182): 2.49 (0.92-6.75)
Coefficient, genetic association, chromosome 9 locus (primary efficacy end point) [5]: 1.705
HR (hazard ratio), genetic association, chromosome 9 locus (primary efficacy end point) [5]: 5.50
